Experimental data as given in patent publication US7465789B2, “Adenosine receptor” (Schering Corporation, priority 2001, dated 2008).

Legend:
[1] = biological target: T1, SP166 (Homo sapiens, UniProt Q9BXA5, L244P); test: FLIPR intracellular Ca++ flux assay in BAF/3 cells stably transfected with SP166; type: cell-based
T1 construct: expressed in transfected cells; host or cells: BAF/3 (murine IL-3 dependent B-cell line), retroviral transduction, G418 selection
T1 sequence (Q9BXA5 1-334 L244P): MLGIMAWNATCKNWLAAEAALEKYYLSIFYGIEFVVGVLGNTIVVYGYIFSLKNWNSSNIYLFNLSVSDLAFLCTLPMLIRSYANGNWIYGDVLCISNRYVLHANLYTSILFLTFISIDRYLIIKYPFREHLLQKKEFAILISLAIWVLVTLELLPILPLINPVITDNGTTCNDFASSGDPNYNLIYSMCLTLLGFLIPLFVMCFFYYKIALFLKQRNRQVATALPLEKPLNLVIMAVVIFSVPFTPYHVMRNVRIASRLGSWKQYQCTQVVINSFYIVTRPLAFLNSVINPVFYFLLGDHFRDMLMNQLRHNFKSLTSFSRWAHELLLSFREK

[2] = biological target: T1, SP166; test: Radioligand saturation and competition binding assay with [3H]-NECA on membranes of cells transfected with SP166; details: radioligand saturation and competition assays
Experimental: Membrane preparation: Cells transfected with SP166 as described above were harvested by incubating in 5 mM EDTA/phosphate-buffered saline followed by repeated pipetting. The cells were centrifuged 5 min at 1000×g. The EDTA/PBS was decanted and an equal volume of ice-cold 50 mM Tris-HCl, pH 7.5, was added and cells were broken up with a Polytron (PT10 tip, setting 5, 30 sec). Nuclei and unbroken cells were sedimented at 1000×g for 10 min and then the supernatant was centrifuged at 50,000×g for 10 min. The supernatant was decanted, the pellet was resuspended by Polytron, a sample was taken for protein assay (bicinchoninic acid, Pierce), and the tissue was again centrifuged at 50,000×g. Pellets were stored frozen at […].
Binding assay: For saturation binding, four concentrations of [^3H]-NECA were incubated without and with 10^−5 M adenosine in triplicate with 50 ug of membrane protein in a total volume of 200 μl of 50 mM Tris-HCl, pH 7.5, for 30 min at 30° C. Samples were filtered on GF/B filters and washed thrice with 2 ml of cold Tris buffer. Filters were dried in a microwave oven, impregnated with Meltilex wax scintillant, and counted at 45% efficiency. For competition binding assays, five concentrations of compounds were incubated in triplicate with 18 nM [^3H]NECA and 70 μg of membrane protein under the conditions described above. […]

[3] = test system: mock transfected cells; test: FLIPR intracellular Ca++ flux assay in mock transfected cells
Experimental: To generate stable transfectants, full-length expression constructs were made in the murine IL-3 dependent B-cell line, BAF/3. Human SP166 was cloned into the retroviral vector, pMX-CD8-myc with 5′ EcoR1 and 3′ Not1 sites. […] To generate high-titer retroviral stock, the ecotropic packaging line BOSC 23 was used as described (Onishi, et al. 1996). Culture supernatants from these cells, containing viral particles, were used to infect BAF/3 cells. Transfectants underwent selection with 1 mg/ml G418 and were further enriched by fluorescence-activated cell sorting and single cell cloning using anti-myc antibody to the N-terminal myc tag.
For the assay, growth media was removed and replaced with medium containing RPMI, 10% FBS, and 1 mM Fluo3-AM (Sigma) (dissolved in 10% pluronic acid in DMSO). […] 50,000 cells in a volume of 100 ml were added to the plates, and the plates were placed into a Fluorescent Imaging Plate Reader (FLIPR, Molecular Devices) equilibrated to 37° C. In the FLIPR, changes in intracellular [Ca^++] levels were measured by excitation of Fluo3 fluorescence at 488 nm while fluorescence output was monitored at 500-560 nm. Fluorescence was monitored once per second for 1 minute, and every 6 seconds for 2 minutes thereafter. […] Values extracted for data analysis represented the maximal fluorescence value minus the minimal fluorescence value detected following, the drug addition. […]

With (R)α-methyladenosine the “activation of SP166 by adenosine analogs” value [1] was “able to activate”.
For Nα-methyladenosine, the “activation of SP166 by adenosine analogs” value [1] was “able to activate”.
Nc1ncnc2c1ncn2[C@@H]1O[C@H](CO)[C@@H](O)[C@H]1O [adenosine] was tested, and the “activation of SP166 (change in intracellular Ca++)” value ([1]; naturally occurring nucleotides and nucleosides examined, SP166-transfected BAF/3 cells) was “specifically activated”, the “binding to the cloned receptor” value [2] was “able to bind” and the “activation by adenosine in mock transfected cells” value [3] was “not observed”.
In the case of (S)α-methyladenosine, the “activation of SP166 by adenosine analogs” value [1] is reported as “inactive”.
